Source: publication PMC5601360 (Journal of Medicinal Chemistry, 2017)
Read-outs that look alike come from different tables or passages of the source.

Experiments:
human MOP receptor = molecular target: T1, human MOP receptor (Homo sapiens, UniProt P35372); test: Competition binding assay, CHO-hMOP cell membranes, [3H]DAMGO; conditions: mean ± SEM, read-out: receptor binding affinity Ki MOP
T1 construct: expressed in transfected cells; host or cells: CHO-hMOP cells (gift of Dr. Lawrence Toll, SRI International)
Procedure: (§1) CHO cells stably expressing recombinant human KOP, MOP, or DOP receptors (CHO-hKOP, CHO-hMOP, and CHO-hDOP cell lines) were kindly provided by Dr. Lawrence Toll (SRI International, Menlo Park, CA). The CHO-hKOP cell line was maintained in Dulbecco’s Minimal Essential Medium (DMEM) supplemented with fetal bovine serum (FBS, 10%), penicillin/streptomycin (0.1%), L-glutamine (2 mM), and geneticin (400 μg/mL). The CHO-hMOP and CHO-hDOP cell lines were maintained in DMEM/Ham’s F-12 medium supplemented with FBS (10%), penicillin/streptomycin (0.1%), L-glutamine (2 mM), and geneticin (400 μg/mL). Cell cultures were maintained at 37 °C in 5% CO2 humidified air.
(§2) . Nonspecific binding was determined using 1–10 μM of the unlabeled counterpart of each radioligand. Assays were performed in 50 mM Tris-HCl buffer (pH 7.4) in a final volume of 1 mL. Cell membranes (15–20 μg) were incubated with the appropriate radioligand and various concentrations of test compound for 60 min at 25 °C. After incubation, reactions were terminated by rapid filtration through Whatman glass fiber filters. Filters were washed three times with 5 mL of ice-cold 50 mM Tris-HCl buffer (pH 7.4) using a Brandel M24R cell harvester (Gaithersburg, MD). Radioactivity retained on the filters was counted by liquid scintillation counting using a Beckman Coulter LS6500 (Beckman Coulter Inc., Fullerton, CA). All binding experiments were performed in duplicate and repeated at least three times. The inhibitory constant Ki values (in nM) were calculated from the competition binding curves by nonlinear regression analysis and the Cheng–Prusoff equation.[16]

human KOP receptor [1] = molecular target: T2, human KOP receptor (Homo sapiens, UniProt P41145); test: [35S]GTPγS binding assay using CHO-hKOP cell membranes; format: biochemical; conditions: for EC50: CHO-hKOP membranes, mean ± SEM; for Emax: read-out: [35S]GTPγS KOP % stim
T2 construct: expressed in transfected cells; host or cells: CHO-hKOP cells (gift of Dr. Lawrence Toll, SRI International)
Procedure: The binding of [^35S]GTPγS to membranes from CHO cells stably expressing human KOP receptors (CHO-hKOP cells) was conducted according to the published procedures.[9a],[9b] CHO-hKOP cell membranes were prepared in buffer A (20 mM HEPES, 10 mM MgCl2, and 100 mM NaCl, pH 7.4). Cell membranes (8–15 μg) in buffer A were incubated with 0.05 nM [^35S]GTPγS, 10 μM GDP, and various concentrations of test compound in a final volume of 1 mL for 60 min at 25 °C. Nonspecific binding was determined using 10 μM GTPγS, and the basal binding was determined in the absence of test ligand. Samples are filtered over glass fiber filters and counted as described for binding assays. […] To determine the KOP antagonist activity, a concentration–response curve for U69,593 was obtained by assessing the [^35S]GTPγS binding to CHO-hKOP cell membranes in the presence or absence of test compound, as previously described.[9b] For each compound, the Schild analysis was conducted, utilizing a full agonist–dose response curve in the presence of at least two concentrations of the antagonist. The equilibrium dissociation constant (Ke) was calculated from the equation Ke = [a]/(DR – 1), where “a” is the concentration of antagonist and DR the virtual shift of the agonist concentration–response curve to the right in the presence of a given concentration of antagonist. All experiments were performed in duplicate and repeated at least three times.

CD1 mice = conditions: mouse, in vivo, sc; for effect on rotarod latencies (motor behavior): 7.5 mg/kg
[2] = test system: acetic acid-induced writhing in CD1 mice; test: Acetic acid-induced writhing assay in mice after sc administration; format: in vivo; conditions: for ED50: Mus musculus, 0.5 h, CD1 mice, inhibition of writhing at 30 min after drug administration, read-out: antinociceptive ED50 (95% CI); for antagonism by nor-BNI of the antinociceptive effect: nor-BNI 20 mg/kg sc 24 h before agonist (2: 5 mg/kg; 3: 1 mg/kg; 4: […] sc)
Procedure: Male CD1 mice (30–35 g, 6–8 weeks old) were obtained from the Center of Biomodels and Experimental Medicine (CBEM) (Innsbruck, Austria) or Charles River (Sulzfeld, Germany). Mice were group-housed in a temperature controlled room with a 12 h light/dark cycle and with free access to food and water. All animal studies were conducted in accordance with ethical guidelines and animal welfare standards according to Austrian regulations for animal research and were approved by the Committee of Animal Care of the Austrian Federal Ministry of Science and Research. Solutions of test compounds were prepared as 1% DMSO solutions in sterile physiological 0.9% saline and further diluted to working doses in saline solution. Test compounds or vehicle (saline) were administered by sc route in a volume of 10 μL/1 g of body weight. All doses are expressed in terms of salts. Separate groups of mice received the respective dose of compound, and individual mice were only used once for behavioral testing. Each experimental group included at least five animals.
Writhing was induced in male CD1 mice by intraperitoneal (ip) injection of a 0.6% acetic acid aqueous solution as described previously.[9a] Groups of mice were administered sc different doses of test compound or saline (control), and then 5 min prior to testing (25 min after drug or saline) each animal received an ip injection of acetic acid solution. Each mouse was placed in individual transparent Plexiglas chambers, and the number of writhes was counted during a 10 min observation period. […] For the antagonism studies, nor-BNI (20 mg/kg) was sc administered 24 h before 2 (5 mg/kg) and 17 (10 mg/kg) was sc administered 15 min before U50,488 (2 mg/kg).

human KOP receptor [3] = molecular target: T2, human KOP receptor; test: Competition binding assay, CHO-hKOP cell membranes, [3H]U69,593; conditions: for Ki: CHO-hKOP membranes, mean ± SEM, read-out: receptor binding affinity Ki KOP; for selectivity DOP/KOP: Ki ratio DOP/KOP; for selectivity MOP/KOP: Ki ratio MOP/KOP
Procedure: as §1
as §2, with “Nonspecific” for “. Nonspecific”

human DOP receptor [4] = molecular target: T3, human DOP receptor (Homo sapiens, UniProt P41143); test: Competition binding assay, CHO-hDOP cell membranes, [3H]diprenorphine; conditions: mean ± SEM, read-out: receptor binding affinity Ki DOP
T3 construct: expressed in transfected cells; host or cells: CHO-hDOP cells (gift of Dr. Lawrence Toll, SRI International)
Procedure: as §1, §2

mice = conditions: icv, ref 9d; cited from earlier work
human DOP receptor [5] = molecular target: T3, human DOP receptor; conditions: CHO-hDOP membranes; ref 9a; read-out: receptor binding affinity Ki DOP; cited from earlier work
[6] = test system: acetic acid-induced writhing in CD1 mice; conditions: mouse, in vivo, sc; cited from earlier work
human KOP receptor [7] = molecular target: T2, human KOP receptor; conditions: ref 9a, cited from earlier work
human KOP receptor [8] = molecular target: T2, human KOP receptor; conditions: percentage stimulation relative to the KOP full agonist U69,593; ref 9a; cited from earlier work
[9] = percentage stimulation relative to the KOP full agonist U69,593

Compound	Ki (human MOP receptor)	EC50 (human KOP receptor [1])	Emax (human KOP receptor [1]; [9])	effect on rotarod latencies (motor behavior) (CD1 mice)	ED50 ([2]; sc)	antagonism by nor-BNI of the antinociceptive effect [2]	Ki (human KOP receptor [3])	selectivity DOP/KOP (human KOP receptor [3])	selectivity MOP/KOP (human KOP receptor [3])	Ki (human DOP receptor [4])	also measured
Cl.Oc1cccc(CCN(CCc2ccccc2)CC2CCCC2)c1 [Compound 3, 3-[2-[(Cyclopentylmethyl)(phenethyl)amino]ethyl]phenol Hydrochloride]	274 ± 20 nM	3.87 ± 1.44 nM	≥ 80%	no significant alterations in rotarod latencies	0.49 mg/kg	antagonized by the KOP antagonist nor-BNI	0.017 ± 0.002 nM	133471	16118	2270 ± 625 nM	increase in antinociceptive potency vs U50,488 ([2]; sc, ED50 comparison): about 3 fold; increase in antinociceptive potency vs compound 1 ([2]; sc, ED50 comparison): 4 fold; increase in antinociceptive potency vs compound 2 ([2]; sc, ED50 comparison): 7 fold
Cl.Oc1cccc(CCN(CCc2ccccc2)CC2CCC2)c1F [Compound 18, 3-[2-[(Cyclobutylmethyl)(phenethyl)amino]ethyl]-2-fluorophenol Hydrochloride]	398 ± 57 nM	6.9 ± 3.35 nM	71.4%	no significant alterations in rotarod latencies	2.64 mg/kg	–	0.072 ± 0.027 nM	>138000	5529	> 10000 nM	–
Oc1cccc(CCN(CCc2ccccc2)CC2CCC2)c1 [Compound 1]	–	–	–	–	–	–	–	–	–	–	antinociceptive potency compared to U50,488 (mice): 2 fold; effect on rotarod performance (evoked locomotor activity) (CD1 mice): did not affect the evoked locomotor activity; Ki (human DOP receptor [5]): > 10000 nM; antinociceptive ED50 (95% CI) [6]: 1.91 (1.02–3.58) mg/kg
Cl.Oc1cccc(CCN(CCc2ccccc2)CC2CCCCC2)c1F [Compound 19, 3-[2-[(Cyclohexylmethyl)(phenethyl)amino]ethyl]-2-fluorophenol Hydrochloride]	851 ± 292 nM	2.77 ± 0.29 nM	≥ 80%	no significant alterations in rotarod latencies	1.33 mg/kg	–	0.04 ± 0.006 nM	–	–	> 10000 nM	–
Cl.Oc1cccc(CCN(CCc2cccc(O)c2)CC2CCCCC2)c1 [Compound 11, 3,3′-[2,2′-(Cyclohexylmethylazanediyl)bis(ethane-2,1-diyl)]diphenol Hydrochloride]	167 ± 52 nM	17.6 ± 7.1 nM	≥ 80%	–	0.95 mg/kg	–	0.14 ± 0.04 nM	10229	1193	1430 ± 506 nM	lower KOP affinity vs compound 4 (human KOP receptor [3]; Ki comparison): about 2 fold
Oc1cccc(CCN(CCc2ccccc2)CC2CC2)c1 [Compound 2]	–	–	–	–	3.23 mg/kg	blocked by nor-BNI	–	–	–	–	selectivity DOP/KOP (human KOP receptor [7]; Ki ratio DOP/KOP): >1700; selectivity MOP/KOP (human KOP receptor [7]; Ki ratio MOP/KOP): 140; [35S]GTPγS KOP % stim (human KOP receptor [8]): 53.4 ± 8.1%; antinociceptive potency compared to U50,488 (mice): equipotent; effect on rotarod performance (evoked locomotor activity) (CD1 mice): did not affect the evoked locomotor activity; inhibition of the writhing response ([2]; sc, different doses, 30 min after drug administration): Dose-dependent inhibition of the writhing response; Ki (human DOP receptor [5]): > 10000 nM
CC(C)CCN(CCc1cccc(O)c1)CCc1cccc(O)c1.Cl [Compound 13, 3,3′-[2,2′-(Isoamylazanediyl)bis(ethane-2,1-diyl)]diphenol Hydrochloride]	211 ± 17 nM	16.6 ± 0.7 nM	65.6 ± 3.4%	–	2.63 mg/kg	–	2.1 ± 0.26 nM	699	100	1470 ± 147 nM	–
Cl.Oc1cccc(CCN(CCc2ccccc2)CC2CCCCC2)c1 [Compound 4, 3-[2-[(Cyclohexylmethyl)(phenethyl)amino]ethyl]phenol Hydrochloride]	537 ± 172 nM	0.23 ± 0.08 nM	61.9%	no significant alterations in rotarod latencies	1.01 mg/kg	antagonized by the KOP antagonist nor-BNI	0.061 ± 0.027 nM	35066	8803	2140 ± 346 nM	increase in agonist potency vs compound 1 (human KOP receptor [1]; EC50 comparison): 16 fold; [35S]GTPγS KOP % stim (human KOP receptor [1]; [9]): 61.9 ± 8.1%; reduction in antinociceptive potency vs compound 3 ([2]; sc, ED50 comparison): about 2 fold
Cl.Oc1cccc(CCN(CCc2cccc(O)c2F)CC2CCC2)c1 [Compound 20, 3-[2-[(Cyclobutylmethyl)(3-hydroxyphenethyl)amino]ethyl]-2-fluorophenol Hydrochloride]	557 ± 198 nM	1.49 ± 0.04 nM	57.5 ± 4.4%	–	2.25 mg/kg	–	0.12 ± 0.01 nM	>83000	4642	> 10000 nM	increase in KOP affinity vs compound 8 (human KOP receptor [3]; Ki comparison): about 3 fold
